From patent US10538555B2, “Macrocyclic inhibitors of the PD-1/PD-L1 and CD80(B7-1)/PD-L1 protein/protein interactions” (BRISTOL-MYERS SQUIBB COMPANY, priority 2014, dated 2020)
Like-named read-outs stand apart in the source and are kept apart here. Where a SMILES comes first, the peptide text is derived from it. Bridges are numbered along the chain shown (N, C = ends). [ ]: non-standard residue; d: D form. Phe(3,4,5-F3) = N[C@@H](Cc1cc(F)c(F)c(F)c1)C(=O)O; Bta = N[C@@H](Cc1csc2ccccc12)C(=O)O; NMeF = CN[C@@H](Cc1ccccc1)C(=O)O; NMeNle = CCCC[C@H](NC)C(=O)O; dPip = O=C(O)[C@H]1CCCCN1; dThz = O=C(O)[C@H]1CSCN1; Dap = NC[C@H](N)C(=O)O; Sar = CNCC(=O)O

Molecular target: T1, Human PD-L1/PD-1 (Homo sapiens, UniProt Q9NZQ7)
T1 construct: TVMV protease cleavage site (C); made in house; host or cells: HEK293T cells
Experiment: HTRF Human PD-L1/PD-1 binding assay (PD-1-Ig/PD-L1-His)
Conditions: PD-L1-His 10 nM, PD-1-Ig 20 nM
Summary of the method: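 Competition of macrocyclic peptides for PD-1/PD-L1 binding measured by HTRF in dPBS containing 0.1% BSA and 0.05% Tween-20. Compound and PD-L1-His (10 nM final) incubated 15 min before PD-1-Ig (20 nM final) and a further 15 min.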

[1] = class symbol, read-out: HTRF Human PD-L1/PD-1 Binding Assay IC50 Range

T1 sequence (Q9NZQ7 with tags, fused parts or gaps): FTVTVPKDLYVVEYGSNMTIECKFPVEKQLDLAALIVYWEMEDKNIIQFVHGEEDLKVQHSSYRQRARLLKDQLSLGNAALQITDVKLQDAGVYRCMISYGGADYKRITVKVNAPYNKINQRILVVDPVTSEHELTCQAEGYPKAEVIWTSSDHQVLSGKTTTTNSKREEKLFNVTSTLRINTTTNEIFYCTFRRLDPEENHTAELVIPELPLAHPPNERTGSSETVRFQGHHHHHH

SMILES	IC50 [1] [µM]	IC50 (read-out: HTRF Human PD-L1/PD-1 Binding Assay IC50) [µM]
CCCC[C@H]1C(=O)N2CCC[C@@H]2C(=O)N[C@@H](CO)C(=O)N[C@@H](C(C)C)C(=O)N(C)[C@@H](Cc2ccccc2)C(=O)N[C@@H](Cc2ccc(O)cc2)C(=O)N(C)CC(=O)N[C@@H](Cc2c[nH]c3ccccc23)C(=O)N[C@@H](Cc2ccc(O)cc2)C(=O)N[C@@H](CC(C)C)C(=O)N[C@H](C(=O)NCC(N)=O)CSCC(=O)N[C@@H](Cc2ccccc2)C(=O)N(C)[C@@H](Cc2ccccc2)C(=O)N1C [Example 10062] ({CH2CO}-F[NMeF][NMeNle][dP]SV[NMeF]Y[Sar]WYLCG-NH2; thioether N-13)	0.01 to 0.0999	–
CCCC[C@H]1C(=O)N2CCC[C@@H]2C(=O)N[C@@H](CO)C(=O)N[C@@H](C(C)C)C(=O)N(C)[C@@H](Cc2ccccc2)C(=O)N[C@@H](Cc2ccc(O)cc2)C(=O)N(C)CC(=O)N[C@@H](Cc2csc3ccccc23)C(=O)N[C@@H](Cc2ccc(O)cc2)C(=O)N[C@@H](CC(C)C)C(=O)N[C@H](C(=O)NCC(N)=O)CSCC(=O)N[C@@H](Cc2ccccc2)C(=O)N(C)[C@@H](Cc2ccccc2)C(=O)N1C [Example 10063] ({CH2CO}-F[NMeF][NMeNle][dP]SV[NMeF]Y[Sar][Bta]YLCG-NH2; thioether N-13)	0.01 to 0.0999	–
CCCC[C@H]1C(=O)N2CCC[C@@H]2C(=O)N[C@@H](CO)C(=O)N[C@@H](C(C)C)C(=O)N(C)[C@@H](Cc2ccccc2)C(=O)N[C@@H](Cc2ccc(O)cc2)C(=O)N2CCCC[C@@H]2C(=O)N[C@@H](Cc2c[nH]c3ccccc23)C(=O)N[C@@H](Cc2ccc(O)cc2)C(=O)N[C@@H](CC(C)C)C(=O)N[C@H](C(=O)NCC(N)=O)CSCC(=O)N[C@@H](Cc2ccccc2)C(=O)N(C)[C@@H](Cc2ccccc2)C(=O)N1C [Example 10064] ({CH2CO}-F[NMeF][NMeNle][dP]SV[NMeF]Y[dPip]WYLCG-NH2; thioether N-13)	0.01 to 0.0999	–
CCCC[C@H]1C(=O)N(C)CC(=O)N[C@@H](CO)C(=O)N[C@@H](C(C)C)C(=O)N(C)[C@@H](Cc2ccccc2)C(=O)N[C@@H](Cc2ccc(O)cc2)C(=O)N2CCCC[C@@H]2C(=O)N[C@@H](Cc2c[nH]c3ccccc23)C(=O)N[C@@H](Cc2ccc(O)cc2)C(=O)N[C@@H](CC(C)C)C(=O)N[C@H](C(=O)NCC(N)=O)CSCC(=O)N[C@@H](Cc2ccccc2)C(=O)N(C)[C@@H](Cc2ccccc2)C(=O)N1C [Example 10065] ({CH2CO}-F[NMeF][NMeNle][Sar]SV[NMeF]Y[dPip]WYLCG-NH2; thioether N-13)	0.01 to 0.0999	–
CCCC[C@H]1C(=O)N2CCC[C@@H]2C(=O)N[C@@H](CO)C(=O)N[C@@H](C(C)C)C(=O)N(C)[C@@H](Cc2ccccc2)C(=O)N[C@@H](Cc2ccc(O)cc2)C(=O)N2CCC[C@@H]2C(=O)N[C@@H](Cc2c[nH]c3ccccc23)C(=O)N[C@@H](Cc2ccc(O)cc2)C(=O)N[C@@H](CC(C)C)C(=O)N[C@H](C(=O)NCC(N)=O)CSCC(=O)N[C@@H](Cc2cc(F)c(F)c(F)c2)C(=O)N(C)[C@@H](Cc2ccccc2)C(=O)N1C [Example 10066] ({CH2CO}-[Phe(3,4,5-F3)][NMeF][NMeNle][dP]SV[NMeF]Y[dP]WYLCG-NH2; thioether N-13)	0.001 to 0.0099	–
CCCC[C@H]1C(=O)N2CCC[C@@H]2C(=O)N[C@@H](CO)C(=O)N[C@@H](C(C)C)C(=O)N(C)[C@@H](Cc2ccccc2)C(=O)N[C@@H](Cc2ccc(O)cc2)C(=O)N2CCC[C@@H]2C(=O)N[C@@H](Cc2c[nH]c3ccccc23)C(=O)N[C@@H](Cc2ccc(O)cc2)C(=O)N[C@@H](CC(C)C)C(=O)N[C@H](C(=O)NCC(N)=O)CSCC(=O)N[C@@H](Cc2ccccc2)C(=O)N(C)[C@@H](Cc2ccccc2)C(=O)N1C [Example 10067] ({CH2CO}-F[NMeF][NMeNle][dP]SV[NMeF]Y[dP]WYLCG-NH2; thioether N-13)	0.001 to 0.0099	–
CCCC[C@H]1C(=O)N2CCC[C@@H]2C(=O)N[C@@H](CC(=O)O)C(=O)N[C@@H](C(C)C)C(=O)N(C)[C@@H](Cc2ccccc2)C(=O)N[C@@H](Cc2ccc(O)cc2)C(=O)N2CSC[C@@H]2C(=O)N[C@@H](Cc2c[nH]c3ccccc23)C(=O)N[C@@H](Cc2ccc(O)cc2)C(=O)N[C@@H](CC(C)C)C(=O)N[C@H](C(=O)NCC(N)=O)CSCC(=O)N[C@@H](Cc2ccccc2)C(=O)N(C)[C@@H](Cc2ccccc2)C(=O)N1C [Example 10068] ({CH2CO}-F[NMeF][NMeNle][dP]DV[NMeF]Y[dThz]WYLCG-NH2; thioether N-13)	0.001 to 0.0099	–
CCCC[C@H]1C(=O)N2CCC[C@@H]2C(=O)N[C@@H](CC(N)=O)C(=O)N[C@@H](C(C)C)C(=O)N(C)[C@@H](Cc2ccccc2)C(=O)N[C@@H](Cc2ccc(O)cc2)C(=O)N2CSC[C@@H]2C(=O)N[C@@H](Cc2c[nH]c3ccccc23)C(=O)N[C@@H](Cc2ccc(O)cc2)C(=O)N[C@@H](CC(C)C)C(=O)N[C@H](C(=O)NCC(N)=O)CSCC(=O)N[C@@H](Cc2ccccc2)C(=O)N(C)[C@@H](Cc2ccccc2)C(=O)N1C [Example 10069] ({CH2CO}-F[NMeF][NMeNle][dP]NV[NMeF]Y[dThz]WYLCG-NH2; thioether N-13)	–	0.0126
CCCC[C@H]1C(=O)N2CCC[C@@H]2C(=O)N[C@@H](CO)C(=O)N[C@@H](C(C)C)C(=O)N(C)[C@@H](Cc2ccccc2)C(=O)N[C@@H](Cc2ccc(O)cc2)C(=O)N2CSC[C@@H]2C(=O)N[C@@H](Cc2c[nH]c3ccccc23)C(=O)N[C@@H](Cc2ccc(O)cc2)C(=O)N[C@@H](CC(C)C)C(=O)N[C@H](C(=O)NCC(N)=O)CSCC(=O)N[C@@H](Cc2ccccc2)C(=O)N(C)[C@@H](Cc2ccccc2)C(=O)N1C [Example 10070] ({CH2CO}-F[NMeF][NMeNle][dP]SV[NMeF]Y[dThz]WYLCG-NH2; thioether N-13)	0.01 to 0.0999	–
CCCC[C@H]1C(=O)N2CCC[C@@H]2C(=O)N[C@@H](CN)C(=O)N[C@@H](C(C)C)C(=O)N(C)[C@@H](Cc2ccccc2)C(=O)N[C@@H](Cc2ccc(O)cc2)C(=O)N2CSC[C@@H]2C(=O)N[C@@H](Cc2c[nH]c3ccccc23)C(=O)N[C@@H](Cc2ccc(O)cc2)C(=O)N[C@@H](CC(C)C)C(=O)N[C@H](C(=O)NCC(N)=O)CSCC(=O)N[C@@H](Cc2ccccc2)C(=O)N(C)[C@@H](Cc2ccccc2)C(=O)N1C [Example 10071] ({CH2CO}-F[NMeF][NMeNle][dP][Dap]V[NMeF]Y[dThz]WYLCG-NH2; thioether N-13)	0.01 to 0.0999	–
CCCC[C@H]1C(=O)N2CSC[C@@H]2C(=O)N[C@@H](CC(=O)O)C(=O)N[C@@H](C(C)C)C(=O)N(C)[C@@H](Cc2ccccc2)C(=O)N[C@@H](Cc2ccc(O)cc2)C(=O)N2CCC[C@@H]2C(=O)N[C@@H](Cc2c[nH]c3ccccc23)C(=O)N[C@@H](Cc2ccc(O)cc2)C(=O)N[C@@H](CC(C)C)C(=O)N[C@H](C(=O)NCC(N)=O)CSCC(=O)N[C@@H](Cc2ccccc2)C(=O)N(C)[C@@H](Cc2ccccc2)C(=O)N1C [Example 10072] ({CH2CO}-F[NMeF][NMeNle][dThz]DV[NMeF]Y[dP]WYLCG-NH2; thioether N-13)	0.001 to 0.0099	–
CCCC[C@H]1C(=O)N2CSC[C@@H]2C(=O)N[C@@H](CC(N)=O)C(=O)N[C@@H](C(C)C)C(=O)N(C)[C@@H](Cc2ccccc2)C(=O)N[C@@H](Cc2ccc(O)cc2)C(=O)N2CCC[C@@H]2C(=O)N[C@@H](Cc2c[nH]c3ccccc23)C(=O)N[C@@H](Cc2ccc(O)cc2)C(=O)N[C@@H](CC(C)C)C(=O)N[C@H](C(=O)NCC(N)=O)CSCC(=O)N[C@@H](Cc2ccccc2)C(=O)N(C)[C@@H](Cc2ccccc2)C(=O)N1C [Example 10073] ({CH2CO}-F[NMeF][NMeNle][dThz]NV[NMeF]Y[dP]WYLCG-NH2; thioether N-13)	0.01 to 0.0999	–
CCCC[C@H]1C(=O)N2CSC[C@@H]2C(=O)N[C@@H](CO)C(=O)N[C@@H](C(C)C)C(=O)N(C)[C@@H](Cc2ccccc2)C(=O)N[C@@H](Cc2ccc(O)cc2)C(=O)N2CCC[C@@H]2C(=O)N[C@@H](Cc2c[nH]c3ccccc23)C(=O)N[C@@H](Cc2ccc(O)cc2)C(=O)N[C@@H](CC(C)C)C(=O)N[C@H](C(=O)NCC(N)=O)CSCC(=O)N[C@@H](Cc2ccccc2)C(=O)N(C)[C@@H](Cc2ccccc2)C(=O)N1C [Example 10074] ({CH2CO}-F[NMeF][NMeNle][dThz]SV[NMeF]Y[dP]WYLCG-NH2; thioether N-13)	0.01 to 0.0999	–
CCCC[C@H]1C(=O)N2CSC[C@@H]2C(=O)N[C@@H](CN)C(=O)N[C@@H](C(C)C)C(=O)N(C)[C@@H](Cc2ccccc2)C(=O)N[C@@H](Cc2ccc(O)cc2)C(=O)N2CCC[C@@H]2C(=O)N[C@@H](Cc2c[nH]c3ccccc23)C(=O)N[C@@H](Cc2ccc(O)cc2)C(=O)N[C@@H](CC(C)C)C(=O)N[C@H](C(=O)NCC(N)=O)CSCC(=O)N[C@@H](Cc2ccccc2)C(=O)N(C)[C@@H](Cc2ccccc2)C(=O)N1C [Example 10075] ({CH2CO}-F[NMeF][NMeNle][dThz][Dap]V[NMeF]Y[dP]WYLCG-NH2; thioether N-13)	0.01 to 0.0999	–
CCCC[C@H]1C(=O)N2CCC[C@@H]2C(=O)N[C@@H](CC(=O)O)C(=O)N[C@@H](C)C(=O)N(C)[C@@H](Cc2ccccc2)C(=O)N[C@@H](Cc2ccc(O)cc2)C(=O)N2CCC[C@@H]2C(=O)N[C@@H](Cc2c[nH]c3ccccc23)C(=O)N[C@@H](Cc2ccc(O)cc2)C(=O)N[C@@H](CC(C)C)C(=O)N[C@H](C(=O)NCC(N)=O)CSCC(=O)N[C@@H](Cc2ccccc2)C(=O)N(C)[C@@H](Cc2ccccc2)C(=O)N1C [Example 10076] ({CH2CO}-F[NMeF][NMeNle][dP]DA[NMeF]Y[dP]WYLCG-NH2; thioether N-13)	0.01 to 0.0999	–
CCCC[C@H]1C(=O)N2CSC[C@@H]2C(=O)N[C@@H](CC(=O)O)C(=O)N[C@@H](C)C(=O)N(C)[C@@H](Cc2ccccc2)C(=O)N[C@@H](Cc2ccc(O)cc2)C(=O)N2CSC[C@@H]2C(=O)N[C@@H](Cc2c[nH]c3ccccc23)C(=O)N[C@@H](Cc2ccc(O)cc2)C(=O)N[C@@H](CC(C)C)C(=O)N[C@H](C(=O)NCC(N)=O)CSCC(=O)N[C@@H](Cc2ccccc2)C(=O)N(C)[C@@H](Cc2ccccc2)C(=O)N1C [Example 10078] ({CH2CO}-F[NMeF][NMeNle][dThz]DA[NMeF]Y[dThz]WYLCG-NH2; thioether N-13)	0.01 to 0.0999	–
